Source: patent US9511057B2, “Methods for treating denervation-induced muscle atrophy” (THE BOARD OF TRUSTEES OF THE LELAND STANFORD JUNIOR …, priority 2013, dated 2016)
Values joined by “and” are separate entries in the source; they are usually repeats but may differ in a detail not shown here. Identical values can stand only once.

Test: Body weight and innervated muscle weight under rapamycin treatment (Table 2)
Format: in vivo, mouse
Design: key to Body weight before / Body weight after: body weight in g; Gastroc weight, innervated muscle: unit not given here
Conditions: for Gastroc weight, innervated muscle / TA weight, innervated muscle / sol (soleus) weight, innervated muscle / Body weight after / Body weight before: individual mice; for TA weight, innervated muscle, MEAN / sol (soleus) weight, innervated muscle, MEAN / Body weight after, MEAN / Body weight before, MEAN: mean of 6 mice; for Body weight after, MEAN / Body weight before, MEAN: in g
Description: Rapamycin (LC Laboratories; Woburn, Mass.) was initially dissolved in 100% ethanol, stored at −20° C., and further diluted in an aqueous solution of 5.2% Tween 80 and 5.2% PEG 400 (final ethanol concentration, 2%) immediately before use (Wendel et al., 2004). Denervated NSA mice (male, 40 g) were injected immediately with rapamycin i.p. at 1.5 mg/kg, or 6 mg/kg body weight, every other day. Control mice were injected with vehicle with the same amount of ethanol solvent with rapamycin group (6 mg·kg). Muscle samples were collected 15 days later. Muscle wet weight was recorded immediately. For immunostaining, muscles were frozen in OCT in dry ice-cold isopentane. For RNA and protein extraction, muscles were quickly frozen in liquid nitrogen. Student t-test was used to evaluate the statistical significance. P<0.05 was considered as statistically significant. Each of these experiments were performed such that there were 3 to 6 separate experimental mice (for each genotype, dose, and time-point) and 3-6 separate control mice per experiment.

[1] = Inn + 1.5 (rapamycin 1.5 mg/kg i.p. every other day, 15 days), in g (unit assumed)
[2] = Inn + 1.5 (rapamycin 1.5 mg/kg), in g (unit assumed)
[3] = Inn + 6 (rapamycin 6 mg/kg i.p. every other day, 15 days)
[4] = Inn + 6 (rapamycin 6 mg/kg), in g (unit assumed)
[5] = rapamycin at the doses used (1.5 or 6 mg/kg i.p. every other day)

CO[C@H]1C[C@@H]2CC[C@@H](C)[C@@](O)(O2)C(=O)C(=O)N2CCCC[C@H]2C(=O)O[C@H]([C@H](C)C[C@@H]2CC[C@@H](O)[C@H](OC)C2)CC(=O)[C@H](C)/C=C(\C)[C@@H](O)[C@@H](OC)C(=O)[C@H](C)C[C@H](C)/C=C/C=C/C=C/1C [rapamycin, Rapamycin]
Gastroc weight, innervated muscle (Inn + 1.5 (rapamycin 1.5 mg/kg i.p. every other day, 15 days)): 0.1984 and 0.2043 and 0.2062 and 167.3 and 196.7 | TA weight, innervated muscle [1]: 0.0719 and 0.0697 and 0.068 and 0.0898 and 0.0795 and 0.0597 | sol (soleus) weight, innervated muscle [1]: 0.0114 and 0.0095 and 0.0099 and 0.0106 and 0.0102 and 0.0075 | TA weight, innervated muscle, MEAN [2]: 0.0731 | sol (soleus) weight, innervated muscle, MEAN [2]: 0.00985 | Gastroc weight, innervated muscle [3]: 0.2084 and 0.2168 and 0.1798 and 217.7 and 230.5 | sol (soleus) weight, innervated muscle [3]: 0.0102 and 0.0116 and 0.0106 (3×) and 0.0115 | TA weight, innervated muscle (Inn + 6 (rapamycin 6 mg/kg i.p. every other day, 15 days), in g (unit assumed)): 0.0686 and 0.0751 and 0.0645 and 0.078 and 0.0713 and 0.0759 | TA weight, innervated muscle, MEAN [4]: 0.07223 | sol (soleus) weight, innervated muscle, MEAN [4]: 0.01085 | Body weight after (Rapa − 1.5, after): 45 and 46 and 42 (2×) and 40 and 39 | Body weight after, MEAN (Rapa − 1.5, after): 42.33 | Body weight before (Rapa − 1.5, before): 41 g (2×) and 46 g and 44 g and 42 g (2×) | Body weight before, MEAN (Rapa − 1.5, before): 42.67 | Body weight after (Rapa − 6, after, in g (unit assumed)): 46 and 38 and 41 and 42 and 40 and 39 | Body weight after, MEAN (Rapa − 6, after): 41 | Body weight before (Rapa − 6, before, in g (unit assumed)): 39 and 42 and 55 and 43 and 41 and 44 | Body weight before, MEAN (Rapa − 6, before): 44 | influence on body weight [5]: did not influence | influence on innervated muscle weight [5]: does not change | influence on innervated muscle weight (rapamycin at the doses used (1.5 or 6 mg/kg i.p. every other day), listed as Rapamycin): did not influence
